Series [1] has as its system BEAS-2B human lung epithelial cells. Put plainly: Stimulation of BEAS-2B human lung epithelial cells, cytokine expression. It is filed as cell-based. To be noted: 48 h. The procedure:
BEAS-2B cells were maintained in Bronchial Epithelial Cell Growth Basal Medium (BEBM) containing all the recommended supplements for the Bronchial Epithelial Cell Growth Medium (BEGM; Lonza #CC-4175) and allowed to attain approximately 70% confluency with media changed every 2-3 days at 37° C. with 5% (v/v) CO2. Tissue culture flasks/vessels were pre-coated with a mixture of 0.01 mg/mL fibronectin (Sigma), 0.03 mg/ml bovine collagen type I (Sigma) and 0.01 mg/mL bovine serum albumin dissolved in the BEBM. BEAS-2B cells were seeded with 0.5 ml of 1×10^6 cells/mL in BEGM per well on 24-well plates and incubated overnight at 37° C. with 5% (v/v) CO2. The cells are pre-treated with different concentrations of compounds (0, 1.0, 10, 100, 1000 μM) for 1 hour prior to stimulation. To stimulate the cells, 10 ng/mL of Interleukin-1 beta (IL-1β), 10 ng/mL of Lipopolysaccharides (LPS), or 20 ng/mL of IL-1$ is added to the wells without removing the media and incubated for 48 hours at 37° C. with 5% (v/v) CO2. Supernatants were collected and stored at −80° C. until quantitative detection assays are performed. Human Eotaxin, Monocyte Chemoattractant Protein-1 (MCP-1), Interleukin-6 (IL-6), Interleukin-25 (IL-25), Interleukin-33 (IL-33), Thymic stromal lymphopoietin (TSLP), and Granulocyte-Macrophage Colony-Stimulating Factor (GM-CSF) released from supernatants collected post stimulation were measured using Human Magnetic Luminex® Assay Kit. Human CCL5/RANTES was measured using an Enzyme-Linked Immunosorbent Assay (ELISA)-based analysis.

For series [2], the target named is T1, CYP2C19 (Homo sapiens, UniProt P33261).
T1 construct: from tissue
T1 sequence (P33261 whole entry): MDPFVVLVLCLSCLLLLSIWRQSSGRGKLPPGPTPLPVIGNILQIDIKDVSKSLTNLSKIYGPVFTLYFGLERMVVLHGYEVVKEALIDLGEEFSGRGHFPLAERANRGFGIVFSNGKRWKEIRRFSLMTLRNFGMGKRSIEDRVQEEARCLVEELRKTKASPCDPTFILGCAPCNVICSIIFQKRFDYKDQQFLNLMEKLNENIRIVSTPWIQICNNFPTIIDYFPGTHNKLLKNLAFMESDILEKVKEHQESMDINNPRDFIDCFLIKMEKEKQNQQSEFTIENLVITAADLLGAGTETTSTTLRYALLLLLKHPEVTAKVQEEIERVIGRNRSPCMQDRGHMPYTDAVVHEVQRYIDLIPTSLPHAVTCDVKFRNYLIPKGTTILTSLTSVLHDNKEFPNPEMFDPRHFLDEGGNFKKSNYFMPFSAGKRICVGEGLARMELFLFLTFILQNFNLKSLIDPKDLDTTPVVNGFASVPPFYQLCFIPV
Put plainly: 5 in 1 CYP inhibition assay, CYP2C19. The series is classed as in vitro ADME. Conditions: microsomes, probe S-mephenytoin (4′-hydroxylation), test compound 10 μM, n=2, read-out: inhibition of cytochrome P450 isoform 2C19. The procedure:
(§1) CYP450 dependent activities were determined using a marker substrate cocktail. For each reaction, enzyme activities in the presence and absence of test compound (10 μM) were measured in duplicate. A known inhibitor for each isoform, tested at a single concentration (3 μM, n=2), was included as positive control. Incubation mixtures containing microsomes, substrate, and standard inhibitor or test compound were warmed at 37° C. for 10 minutes. Reactions were initiated by addition of the NADPH and incubated for 10 min. [table] After incubation, ice cold acetonitrile was added to terminate the reaction. Generation of metabolites from the substrate reactions was determined by LC-MS/MS.

In series [3] the test system is THP-1 derived macrophages. Put plainly: Stimulation of THP-1 cells, cytokine release 72 h post stimulation. The series is classed as cell-based, human. To be noted: 72 h post stimulation (IFN-γ + LPS); 0.1, 1, 10, 100 or 200 μM vs 0 μM. The procedure: Human immortalized monocytic THP-1 cells were maintained in phenol red free RPMI 1640 medium containing 10% (v/v) fetal bovine serum (FBS), 2 mM L-glutamine, penicillin (100 units/mL), streptomycin (100 μg/mL), amphotericin B (2.5 μg/mL), and 50 μM beta-mercaptoethanol (BME) at 37° C. with 5% (v/v) CO2. THP-1 cells were seeded in 1 mL of THP-1 medium (cell culture medium containing 10% (v/v) FBS, 2 mM L-glutamine, penicillin (100 units/mL), streptomycin (100 μg/mL), amphotericin B (2.5 μg/mL), and 50 μM BME)/well at a density of 1 million cells/mL in six-well plates. Cells were differentiated by adding 100 nM phorbol 12-myristate 13-acetate (PMA) to each well before incubating cells for 5.5 h at 37° C. with 5% (v/v) CO2. Without removing the media, different concentrations (either 0, 0.1, 1, 10, 100, or 200 μM) of 1 and 10 were added to each well. Cells were stimulated, within 30 min by adding 20 ng/mL interferon gamma (IFN-γ) and 100 ng/mL lipopolysaccharide (LPS) to each well. Following stimulation, the THP-1 cells were incubated for 72 h at 37° C. with 5% (v/v) CO2. Supernatant was collected and stored at −80° C. until use.
IL-6 release from supernatant collected at 72 hours post stimulation was measured using the AlphaLISA Human IL-6 detection kit.
TNFα release from supernatant collected at 72 hours post stimulation was measured using the AlphaLISA Human TNFα detection kit.

For series [4], the system named is A549 human alveolar epithelial cells. Put plainly: Stimulation of A549 human lung carcinoma cell line, cytokine expression. It is filed as cell-based. Conditions: A549, 10 ng/mL TNFα + 10 ng/mL IL-1β, 48 hours; for percent inhibition relative to Stimulated of IL-8 expression: FIG. 16. As to the method: A549 cells are cultured in DMEM supplemented with 2 mM glutamine and 10% Fetal Bovine Serum (FBS) at 37° C. with 5% (v/v) CO2. Cells are grown to approximately 80% confluency before being passage and media is changed every 2-3 days. A549 cells are seeded in 24-well plates at a density of 0.5×10^6 cells per well at 37° C. with 5% (v/v) CO2. The cells are pre-treated with the compounds (0, 1.0, 10, 100 μM) for 1 hour prior to addition of 10 ng/mL of TNFα and 10 ng/mL of IL-1β for 48 hours at 37° C. with 5% (v/v) CO2. Supernatants were collected and stored at −80° C. until quantitative detection assays are performed.
Human Eotaxin, Monocyte Chemoattractant Protein-1 (MCP-1), Interleukin-6 (IL-6), Interleukin-25 (IL-25), Interleukin-33 (IL-33), Thymic stromal lymphopoietin (TSLP), and Granulocyte-Macrophage Colony-Stimulating Factor (GM-CSF) released from supernatants collected post stimulation were measured using Human Magnetic Luminex® Assay Kit. Human CCL5/RANTES was measured using an Enzyme-Linked Immunosorbent Assay (ELISA)-based analysis.

Series [5] concerns the target T2, CYP3A4 (Homo sapiens, UniProt P08684).
T2 construct: from tissue
Put plainly: 5 in 1 CYP inhibition assay, CYP3A4. It is filed as in vitro ADME. To be noted: microsomes, probe midazolam (1′-hydroxylation), test compound 10 μM, n=2, read-out: inhibition of cytochrome P450 isoform 3A4. As to the method:
as §1

[6] abbreviates: 10 ng/mL IL-1β, compound concentration series, FIG. 10A.
Setting [7] is: 10 ng/mL IL-1β, compound concentration series, FIG. 10B.
[8] abbreviates: at 100 μM, 10 ng/mL IL-1β, FIG. 10A.
Setting [9] is: at 100 μM, 10 ng/mL IL-1β, FIG. 10B.
The mark [10] stands for this setting: 10 ng/mL LPS, compound concentration series, FIG. 11A.
The mark [11] stands for this setting: 10 ng/mL LPS, compound concentration series, FIG. 11B.

Experimental findings from patent publication US11845770B2, “Ascaroside derivatives and methods of use” (California Institute of Technology, priority 2019, dated 2023) are described below.

“Also recorded” adds a separate entry of the source.

T2 sequence (P08684 whole entry): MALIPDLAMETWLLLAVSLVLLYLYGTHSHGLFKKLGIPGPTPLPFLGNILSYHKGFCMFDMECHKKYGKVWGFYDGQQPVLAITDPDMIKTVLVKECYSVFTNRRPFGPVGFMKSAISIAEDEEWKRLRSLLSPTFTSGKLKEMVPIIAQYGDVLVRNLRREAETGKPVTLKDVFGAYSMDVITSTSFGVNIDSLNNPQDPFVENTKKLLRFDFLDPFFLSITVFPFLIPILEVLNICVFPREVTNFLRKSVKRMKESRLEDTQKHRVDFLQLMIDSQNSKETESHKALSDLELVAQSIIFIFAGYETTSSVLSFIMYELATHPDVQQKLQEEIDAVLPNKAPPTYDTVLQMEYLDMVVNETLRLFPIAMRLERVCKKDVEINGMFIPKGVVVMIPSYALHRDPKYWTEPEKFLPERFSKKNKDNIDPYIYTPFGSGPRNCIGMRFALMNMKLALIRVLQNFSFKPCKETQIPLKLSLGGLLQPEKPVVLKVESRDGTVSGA

In general, inhibition refers to the relative decrease from the control value, in per cent. With `C[C@H](CC/C=C/C(=O)OC(C)(C)C)O[C@@H]1O[C@@H](C)[C@H](O)C[C@H]1O` [Compound 1, tert-butyl (2E,6R)-6-{[(2R,3R,5R,6S)-3,5-dihydroxy-6-methyloxan-2-yl]oxy}hept-2-enoate], the “percent inhibition relative to Stimulated of IL-25 expression” value in series [1] (setting [6]) was “statistically significant, dose-dependent inhibition”. The “percent inhibition relative to Stimulated of Eotaxin expression” value in series [1] (setting [7]) is “statistically significant, dose-dependent inhibition”. For the same molecule, in series [1] (setting [8]), the “percent inhibition relative to Stimulated of IL-6 expression” value is recorded as “statistically significant, complete inhibition”; the “percent inhibition relative to Stimulated of IL-8 expression” value is recorded as “statistically significant, complete inhibition”; the “percent inhibition relative to Stimulated of IL-25 expression” value is “statistically significant, complete inhibition”; the “percent inhibition relative to Stimulated of IL-33 expression” value is on record as “statistically significant, complete inhibition”. Besides, in series [1] (setting [9]), the “percent inhibition relative to Stimulated of GM-CSF expression” value is listed as “statistically significant, complete inhibition”; the “percent inhibition relative to Stimulated of MCP-1 expression” value is reported as “statistically significant, complete inhibition”; the “percent inhibition relative to Stimulated of TSLP expression” value was “statistically significant, complete inhibition”. For the same molecule, the “inhibition of expression of multiple inflammatory cytokines (IL-6, IL-8, IL-25, IL-33)” value in series [1] (at 100 μM, 10 ng/mL LPS, FIG. 11A) is listed as “complete, statistically significant inhibition”. In addition, the “inhibition of expression of multiple inflammatory cytokines (GMCSF, MCP-1, TSLP)” value in series [1] (at 100 μM, 10 ng/mL LPS, FIG. 11B) is reported as “statistically significant, complete inhibition”. Moreover, the inhibition at 10 min, 10 µM in series [2] was found to be 16.2%. For the same molecule, in series [3], the “fold change of IL-6 levels secreted by the THP1-derived macrophages” value is listed as “reduced these levels significantly; also recorded: even more significantly reduced” and the “fold change of TNFα levels secreted by the THP1-derived macrophages” value is listed as “reduced these levels significantly”. Besides, in series [4] (1.0, 10, 100 μM), the “percent inhibition relative to Stimulated of IL-8 expression” value is “dose-dependent inhibition”. Moreover, in series [4] (1.0, 10, 100 μM, FIG. 16, 17), the “percent inhibition relative to Stimulated of GM-CSF expression” value is recorded as “statistically significant, dose-dependent inhibition”; the “percent inhibition relative to Stimulated of IL-25 expression” value is reported as “dose-dependent inhibition”; the “percent inhibition relative to Stimulated of IL-33 expression” value is “statistically significant, dose-dependent inhibition”; the “percent inhibition relative to Stimulated of MCP-1 expression” value was “statistically significant, dose-dependent inhibition”. In series [4] (FIG. 18), the “percent inhibition relative to Stimulated of Eotaxin expression” value is reported as “robust, statistically significant inhibition”; the “percent inhibition relative to Stimulated of IL-6 expression” value is “robust, statistically significant inhibition”; the “percent inhibition relative to Stimulated of RANTES expression” value is recorded as “robust, statistically significant inhibition”; the “percent inhibition relative to Stimulated of TSLP expression” value is listed as “robust, statistically significant inhibition”. The inhibition at 10 min, 10 µM in series [5] worked out at 1%.

As to `C[C@H](CC/C=C/C(=O)O)O[C@@H]1O[C@@H](C)[C@H](O)C[C@H]1O` [ascr #7, reference compound], the “percent inhibition relative to Stimulated of IL-6 expression” value in series [1] (setting [6]) and in series [1] (setting [10]) was “did not show convincing inhibition” in each case. The “percent inhibition relative to Stimulated of IL-8 expression” value in series [1] (setting [6]) is “did not show convincing inhibition”; in series [1] (setting [10]), “did not show convincing inhibition”; in series [4] (1.0, 10, 100 μM) it was “did not influence”. The “percent inhibition relative to Stimulated of IL-25 expression” value is on record as “statistically significant, dose-dependent inhibition” in series [1] (setting [6]); “did not show convincing inhibition” in series [1] (setting [10]); “statistically significant, dose-dependent blocking” in series [1] (20 ng/mL IL-1β, compound concentration series, FIG. 12); “did not influence” in series [4] (1.0, 10, 100 μM, FIG. 16, 17). Further, the “percent inhibition relative to Stimulated of IL-33 expression” value in series [1] (setting [6]) and in series [1] (setting [10]) was “did not show convincing inhibition” each time. Also, the “percent inhibition relative to Stimulated of Eotaxin expression” value in series [1] (setting [7]) is recorded as “statistically significant, dose-dependent inhibition”; in series [1] (at 10 and 100 μM, 20 ng/mL IL-1β, FIG. 13), “statistically significant, almost complete blocking”. Besides, the “percent inhibition relative to Stimulated of GM-CSF expression” value in series [1] (setting [7]) was “did not demonstrate convincing inhibition”; in series [1] (setting [11]), “did not show convincing inhibition”; in series [4] (1.0, 10, 100 μM, FIG. 16, 17), “statistically significant but not dose-dependent inhibition”. The “percent inhibition relative to Stimulated of MCP-1 expression” value in series [1] (setting [7]) is given as “did not demonstrate convincing inhibition”; in series [1] (setting [11]), “did not show convincing inhibition”; in series [4] (1.0, 10, 100 μM, FIG. 16, 17), “statistically significant but not dose-dependent inhibition”. Besides, the “percent inhibition relative to Stimulated of TSLP expression” value in series [1] (setting [7]) is recorded as “did not demonstrate convincing inhibition”; in series [1] (setting [11]), “did not show convincing inhibition”. Besides, the inhibition at 10 min, 10 µM in series [2] amounted to 4%; in series [5] it was 0%. In series [3], the “fold change of IL-6 levels secreted by the THP1-derived macrophages” value is recorded as “significantly reduced”.
